For one data set, the system named is M2R/M3R. The data set can be described thus: Ex vivo screening of muscarinic M2R/M3R antagonists on isolated guinea pig ileum (methacholine-induced contraction). The following applies: methacholine as agonist. The procedure: Another group of guinea pig intestinal receptors able to regulate smooth muscle contraction is that of the muscarinic receptors, including M2R and M3R. All compounds were tested on the muscarinic receptors using the same animal model. This approach is similar to measuring histamine H1R antagonist activity. Methacholine was used as a receptor agonist, while 1,1-dimethyl-4-diphenylacetoxypiperidinium iodide (4-DAMP) was used as a reference M3R antagonist. As methacholine is not selective according to M2R and M3R, it is not possible to precisely specify which one was responsible for the effect observed on the tissue preparations. Some authors often attribute the results to the minor M3R subtype (gpM2R:M3R = 4:1 or 5:1), which is generally associated with the contractions,[38] but such an overinterpretation may be misleading, as indicated by our further hM1R-hM5R radioligand binding assay results shown in Table 2. […] These findings partially explain the influence of ADS10227 on the contractility of guinea pig ileum following electrical stimulation. […] In subsequent studies, we tried to clarify this.
Male guinea pigs, weighing 300–400 g, were euthanized by a blow to the neck. A 20–30 cm length of the distal ileum, apart from the terminal 5 cm, was rapidly removed and placed in phosphate buffer at room temperature (pH 7.4) containing (mM) NaCl (136.9), KCl (2.6), KH2PO4 (1.47), Na2HPO4 (9.58), and indomethacin (1 × 10^–6 mol/L)). The intraluminal content was rinsed, and the isolated intestine was cut into 1.5–2 cm segments. The preparations were mounted isotonically in a 20 mL organ bath filled with Tyrode’s buffer: composition (mM) NaCl (137), KCl (2.7), MgCl2·6H2O (1.0), CaCl2 (1.8), NaH2PO4·H2O (0.4), NaHCO3 (11.9), glucose (5.61), and indomethacin (3 × 10^–7 mol/L). The solution was continuously bubbled with a 95% O2:5% CO2 mixture and maintained at 37 °C under a constant load of 0.5 g (Hugo Sachs Hebel–Messvorsatz (Tl-2)/HF-modem; Hugo Sachs Elektronik, Hugstetten, Germany) connected to a pen recorder (Kipp & Zonen BD41, Delft, Holland). During an equilibration period of 40 min, Tyrode’s buffer was changed every 10 min. The first cumulative concentration–response curve was determined for methacholine (10 nM to 3 mM) at increasing concentrations spaced by 3- or 3.3-fold. The second to the fourth (or fifth) curves were measured in the presence of an increasing concentration of antagonist (incubation time 20 min). The pA2 values were calculated according to Arunlakshana and Schild.[37] Statistical analysis was carried out with the Students’ t test. In all tests, a p < 0.05 was considered statistically significant.

For data set [1], the system named is electrically stimulated guinea pig ileum. The data set can be described thus: Decrease of contractility in electrically stimulated guinea pig ileum (-log EC50 determination). To be noted: electrically stimulated guinea pig ileum; for EC50: Cavia porcellus, read-out: Decrease of contractility (-logEC50 ± sem) (converted). The procedure:
A standard ex vivo assay based on the relaxant response of histamine H3R agonists to electrically driven guinea pig ileum was used to test the influence of ADS compounds on the reduction of electrically evoked tissue contraction. […] The −log EC50 value for RAMH and ADS compounds were evaluated. […] Following this, we decided to evaluate the ADS series as potential M2R/M3R ligands on the isolated guinea pig ileum.
Male guinea pigs, weighing 300–400 g, were euthanized by a blow to the neck. A 20–30 cm length of the distal ileum, apart from the terminal 5 cm, was rapidly removed and placed in phosphate buffer at room temperature (pH 7.4) containing (mM) NaCl (136.9), KCl (2.6), KH2PO4 (1.47), Na2HPO4 (9.58), and indomethacin (1 × 10^–6 mol/L)). The intraluminal content was rinsed, and the isolated intestine was cut into 1.5–2 cm segments. The preparations were mounted between two platinum electrodes isotonically in a 20 mL organ bath filled with Krebs buffer: composition (mM) NaCl (118), KCl (5.6), MgSO4 (1.18), CaCl2 (2.5), NaH2PO4·H2O (1.28), NaHCO3 (25), glucose (5.55), and indomethacin (3 × 10^–7 mol/L). The solution was continuously bubbled with a 95% O2:5% CO2 mixture and maintained at 37 °C under a constant load of 1.0 g (Hugo Sachs Hebel–Messvorsatz (Tl-2)/HF-modem; Hugo Sachs Elektronik, Hugstetten, Germany) connected to a pen recorder (Kipp & Zonen BD41, Delft, Holland). During an equilibration period of 60 min, Krebs buffer was changed every 10 min. Following this, the preparations were continuously stimulated at 15–20 V, at a frequency of 0.1 Hz for a duration of 0.5 ms, with rectangular-wave electrical pulses (Grass Stimulator S-88; Grass Instruments Co., Quincy, Massachusetts, USA). […] Cumulative concentration–response curve was determined to RAMH or tested agonist (10 nM to 10 mM) at increasing concentrations spaced by 3- or 3.3-fold. The agonist potency is expressed as pD2 value (−log EC50) ± sem.

A further data set has as its target T1, hH3R (Homo sapiens, UniProt Q9Y5N1).
T1 construct: expressed in transfected cells; membrane fractions
The data set can be described thus: hH3R radioligand displacement binding assay ([3H]-Nα-methylhistamine, HEK-293 cell membranes). The following applies: for Ki: [3H]-Nα-methylhistamine, HEK-293 membranes, read-out: hH3R -log(Ki) ± sem (converted). On the procedure: [^3H]-N^α-Methylhistamine was used as a radiolabeled ligand.
The radioligand displacement binding assay was performed in membrane fractions of HEK-293 cells stably expressing hH3R. Cell cultivation and membrane preparation were performed according to Kottke et al.[43] […] The total assay volume was set to 200 μL. The compounds were tested in several appropriate concentrations between 100 μM and 0.1 nM. Pipetting was partly done by Freedom Evo (Tecan). […] The membrane fraction (20 μg/well), test compounds, and radiolabeled ligand were incubated for 90 min at 25 °C while shaking. The bound radioligand was separated from free radioligand by filtration through GF/B filters pretreated with 0.3% (m/v) polyethylenimine using a cell harvester. Radioactivity was determined by liquid scintillation counting using a MicroBeta Trilux (PerkinElmer). The data were obtained in duplicates in at least three independent experiments. Nonspecific binding was subtracted from the raw data to calculate specific-binding values. The evaluation was performed with GraphPad Prism 6.1 (San Diego, CA, USA) using nonlinear regression (one-site competition with a logarithmic scale). The Ki values were calculated from the IC50 values using the Cheng–Prusoff equation.[44] The statistical calculations were performed on −log Ki. The mean values and 95% confidence intervals were transformed to nanomolar concentrations.

Data set [2] addresses T2, H1R (Cavia porcellus, UniProt P31389).
T2 construct: from tissue; host or cells: isolated distal ileum of male guinea pigs
The data set can be described thus: Ex vivo screening of histamine H1R antagonists on guinea pig ileum, variant without atropine. The following applies: isolated guinea pig ileum, histamine as agonist, read-out: H1R pA2 gpi ± sem (converted). The procedure: (§1) The second histamine receptor located in the guinea pig ileum is H1R. […] The H1R antagonistic effect was measured on isolated guinea pig ileum stimulated to contract by histamine.[37] To assess and exclude the influence of the ADS compounds on muscarinic receptors, two test variations were used: one with the addition of 0.05 μM atropine and one without.
(§2) Male guinea pigs, weighing 300–400 g, were euthanized by a blow to the neck. A 20–30 cm length of the distal ileum, apart from the terminal 5 cm, was rapidly removed and placed in phosphate buffer at room temperature (pH 7.4) containing (mM) NaCl (136.9), KCl (2.6), KH2PO4 (1.47), Na2HPO4 (9.58), and indomethacin (1 × 10^–6 mol/L). The intraluminal content was rinsed, and the isolated intestine was cut into 1.5–2 cm segments. The preparations were mounted isotonically in a 20 mL organ bath filled with Krebs buffer: composition (mM) NaCl (118), KCl (5.6), MgSO4 (1.18), CaCl2 (2.5), NaH2PO4·H2O (1.28), NaHCO3 (25), glucose (5.55), and indomethacin (3 × 10^–7 mol/L). […] The solution was continuously bubbled with a 95% O2:5% CO2 mixture and maintained at 37 °C under a constant load of 0.5 g (Hugo Sachs Hebel–Messvorsatz (Tl-2)/HF-modem; Hugo Sachs Elektronik, Hugstetten, Germany) connected to a pen recorder (Kipp & Zonen BD41, Delft, Holland). During an equilibration period of 40 min, Krebs buffer was changed every 10 min. The first cumulative concentration–response curve was determined for histamine (10 nM to 10 mM) at increasing concentrations spaced by 3- or 3.3-fold. The second to the fourth (or fifth) curves were measured in the presence of an increasing concentrations of antagonist (incubation time 10 min). The pA2 values were calculated according to Arunlakshana and Schild.[37] Statistical analysis was carried out with the Students’ t test. In all tests, a p < 0.05 was considered statistically significant.

Data set [3] concerns the target T2, H1R. The data set can be described thus: Ex vivo screening of histamine H1R antagonists on guinea pig ileum, variant with 0.05 μM atropine. To be noted: isolated guinea pig ileum, histamine as agonist, read-out: H1R+atropine pA2 gpi ± sem (converted). The procedure:
as §1, §2

A further data set concerns M2R. Details: method as in PMID 11421251. To be noted: cited from earlier work.

The text below walks through data of PMC8291587, “Guanidine Derivatives: How Simple Structural Modification of Histamine H3R Antagonists Has Led to the Discovery of Potent Muscarinic M2R/M4R Antagonists” (ACS Chemical Neuroscience, 2021).

The Ki is a dissociation constant, usually derived from enzyme kinetics or from competition with a known ligand. As usually defined, the Kd is the free concentration of one partner at which half of the binding sites on the other are occupied at equilibrium, for simple one-to-one binding. Read a low Kd as tighter binding.

T2 sequence (P31389 whole entry): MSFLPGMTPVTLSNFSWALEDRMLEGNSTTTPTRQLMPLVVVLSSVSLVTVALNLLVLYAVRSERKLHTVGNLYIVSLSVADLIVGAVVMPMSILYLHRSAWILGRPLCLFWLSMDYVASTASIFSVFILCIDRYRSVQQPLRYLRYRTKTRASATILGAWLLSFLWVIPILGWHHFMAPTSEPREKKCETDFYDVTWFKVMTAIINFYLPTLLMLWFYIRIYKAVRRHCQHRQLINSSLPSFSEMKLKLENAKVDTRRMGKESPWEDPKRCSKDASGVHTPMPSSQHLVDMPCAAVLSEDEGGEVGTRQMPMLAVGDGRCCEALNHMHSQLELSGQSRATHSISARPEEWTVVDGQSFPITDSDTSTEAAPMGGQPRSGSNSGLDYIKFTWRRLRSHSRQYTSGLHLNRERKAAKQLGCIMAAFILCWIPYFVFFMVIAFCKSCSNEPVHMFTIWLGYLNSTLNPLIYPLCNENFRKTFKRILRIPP
T1 sequence (Q9Y5N1 whole entry): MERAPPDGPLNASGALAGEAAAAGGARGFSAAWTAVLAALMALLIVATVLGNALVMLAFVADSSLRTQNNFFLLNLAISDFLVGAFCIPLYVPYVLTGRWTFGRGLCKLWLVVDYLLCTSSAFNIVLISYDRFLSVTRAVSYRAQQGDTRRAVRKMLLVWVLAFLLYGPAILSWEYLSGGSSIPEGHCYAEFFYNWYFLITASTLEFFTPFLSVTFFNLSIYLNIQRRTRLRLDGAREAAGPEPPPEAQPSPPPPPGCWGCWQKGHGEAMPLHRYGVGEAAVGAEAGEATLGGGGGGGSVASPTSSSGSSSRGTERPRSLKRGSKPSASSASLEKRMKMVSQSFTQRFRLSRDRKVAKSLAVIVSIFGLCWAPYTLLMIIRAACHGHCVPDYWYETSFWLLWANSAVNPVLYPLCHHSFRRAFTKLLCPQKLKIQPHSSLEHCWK

On to `C[N+]1(C)CCC(OC(=O)C(c2ccccc2)c2ccccc2)CC1.[I-]` [4-DAMP, 1,1-dimethyl-4-diphenylacetoxypiperidinium iodide, reference compound], for which, in the data set on M2R/M3R, the “M2R/M3R pA2 gpi ± sem” value amounted to 9.05 ±0.11.
With `N=C(N)N(CCCCN1CCN(Cc2ccc(COc3ccccc3)cc2)CC1)Cc1ccc(C(F)(F)F)cc1` [ADS10183], the EC50 in data set [1] is 2290 nM. For the same compound, the “M2R/M3R pA2 gpi ± sem” value in the data set with M2R/M3R worked out at 5.83±0.22. Further, the Ki at hH3R was 1660 nM. For the same compound, the Kb at H1R [2] was 182 nM; on H1R [3], 151 nM.
`N=C(N)N(CCCCN1CCN(Cc2ccc(COc3ccccc3)cc2)CC1)Cc1ccccc1` [ADS10185]: in data set [1], the EC50 is 3090 nM. Also, the “M2R/M3R pA2 gpi ± sem” value in the data set with M2R/M3R came to 5.77±0.15. Moreover, the Ki on hH3R is 1350 nM. In addition, the Kb at H1R [2] is 105 nM; on H1R [3], 100 nM.
Taken in the same sequence, the figures for `[H]/N=C(\N)N(CCCCN1CCN(CC2CCC(COc3ccccc3)CC2)CC1)Cc1ccc(C(F)(F)F)cc1` (stereo not drawn) [ADS10207] were 724 nM, 5.68±0.15, 1620 nM, 75.9 nM and 120 nM.
For the compound `N=C(N)N(CCCCN1CCN(Cc2ccc(Oc3ccccc3)cc2)CC1)Cc1ccc(C(F)(F)F)cc1` [ADS10210], the EC50 in data set [1] was 575 nM. For the same compound, the “M2R/M3R pA2 gpi ± sem” value with M2R/M3R is recorded as 5.83±0.14. The Ki at hH3R was 1660 nM. The values for the Kb at H1R [2] and at H1R [3] were 60.3 nM and 97.7 nM, respectively.
The matching figures for `N=C(N)N(CCCCN1CCN(C[C@H]2CC[C@H](COc3ccccc3)CC2)CC1)Cc1ccccc1` [ADS10283]: 832 nM, 6.02±0.07, 2040 nM, 145 nM and 166 nM.
In the case of `C[C@@H](N)Cc1c[nH]cn1` [RAMH, (R)(−)-α-methylhistamine, reference compound], in data set [1], the “Decrease of contractility (-logEC50 ± sem)” value worked out at 7.70±0.07. Moreover, the “intrinsic activity (maximal response as fraction of maximal response of the system)” value in data set [1] (from concentration–response curves) amounted to 0.82.
On to `COc1ccc(S(=O)(=O)c2ccc(C3(C4CCN(C5CCN(C(=O)c6cccc(C)c6N)CC5)CC4)OCCO3)cc2)cc1` [SCH-217443], for which the “effective dose in the rodent cognition model lower than that known to increase heart rate in rats” value in the data set with M2R is 30 fold.
In turn, `CNCCc1cnc[nH]1` [[^3H]N^α-methylhistamine, reference compound] came in with a Kd on hH3R (radioligand used at 2 nM) of 3.08 nM.
